# From patent US20240057599A1, “METHODS FOR IMPROVING FRUIT QUALITY” (The State of Israel, Ministry of Agriculture & Rural …, priority 2021, published 2024)
# Columns and labels:
# Format in all cases: in vivo
# [1] = tested on: Muscat grapes and Petit Verdot grapes; assay: Sensory analysis and Brix of grapes and juice after preharvest treatment; details: for Brix values of grapes and/or juice: 8 mM preharvest, vs control
# Protocol: Grapes—Muscat grapes and Petit Verdot grapes were treated with 8 mM phenylalanine for: (i) 1 week or 2 weeks; and (ii) 1 week, 2 weeks, or 3 weeks, before harvest, and their combination, respectively. Sensory analysis by a panel of 20 tasters was performed, for the juice extracted from the fruits, and Brix, and % acidity (calibrated according to citric acid) values were also determined. In the case of muscat grapes, intact fruits were also analyzed (e.g., by the panel, Brix, and % acidity).
# [2] = tested on: Mango (Tali) fruits; assay: Aroma-associated VOC levels in dipped mango fruits; details: pulp; dipped in 8 mM; 11 days at 22° C.; vs non-treated
# Protocol: FIGS. 30A-30G include vertical bar graphs showing that a […] treatment of mango fruits with 8 mM phenylalanine increases the levels of aroma-associated VOCs. Mango (Tali) fruits were dipped in 8 mM phenylalanine and after 11 days of storage at 22° C. the profile of volatiles in the fruit […] was examined. Concentration of the following volatile aroma substances was examined (presented as μg/gFW): (30A) α-Pinene; (30B) 3-Carene; (30C) D-Limonene; (30D) Gurjunene; (30E) α-Terpinolene; (30F) α-Phellandrene; and (30G) Caryophyllene. Further, the inventors have shown that postharvest treatment as disclosed herein improves fruit aroma. The investors have dipped Mango fruits, and 11 days after storage at 22° C., the levels of aroma-associated VOCs were determined. Indeed, postharvest treatment with an effective amount of phenylalanine induced a significant increase in the levels of all tested VOCs (FIG. 30).
# [3] = tested on: mango fruits; assay: Sensory analysis by a panel of 20 tasters, mango fruits and juice; details: for quality of juice extracted from mango fruits: preharvest application, 2020
# Protocol: (§1) Mango—unripe Mango fruits were harvested and dipped in 4-8 mM phenylalanine for a period of 30 seconds. Fruits were stored at 22° C. until ripening (Days 11-15), wherein sensory analysis by a panel of 20 tasters was performed. Further, Brix, and % acidity (calibrated according to citric acid), and firmness (by Newton units) values were determined in 5 different fruits.
# [4] = tested on: mango fruits; assay: Red coloration of mango fruits after preharvest treatment; details: Shelly and Kent; 8 mM, 1 or 2 weeks preharvest
# Protocol: (§2) Mango or apple trees were treated 1 week or 2 weeks pre-harvest with either 8 mM of phenylalanine or with 0.2% prohydrojasmon ('blush'). Fruits were harvested from the external area of the tree, wherein fruits are exposed to the sunlight (photon flux of 1,500±200 μmol·m^-2 sec^-1). After harvest: (a) mango fruits were stored for 3 weeks at 12° C., and for another week at 22° C. (e.g., shelf life); and (b) apple fruits were stored for 3 months at 0° C., and for another week at 22° C. (e.g., shelf life). Surface area of the red color was evaluated as percentage, and red intensity was evaluated on a scale of 0-5. Each mango fruit was assessed for percentage of red surface area on fruit for each treatment at different time points (harvest, after cold storage at 12° C. and after shelf life at 22° C.). Similarly, red intensity was evaluated for each mango fruit using a visual rating scale, where 0=no red color, 1=faint red color, and 5=very intense red color. Fifty fruit were evaluated per treatment. The skin color (hue) of 15 mango fruit was measured for each treatment using a CR-400/410 Chromometer (Konicka Minolta, Osaka, Japan) on the equatorial line of each fruit at the […] point. […] Chlorophyll, anthocyanin, and flavonoid content were measured by the Multiplex III fluorescence detector (Force A, Orsay, France), which consists of 12 fluorescence signals. […]
# [5] = tested on: Starking and Anna apples; assay: Enzymatic browning of sliced apple fruits after preharvest treatment; details: 0.12%
# Source text: FIGS. 29A-29E include micrographs showing the effect of preharvest treatment on decay parameters in Starking (29A-29B) and Anna (29C-29E) apples. In control fruits, enzymatic browning (i.e., oxidation) was highly evident (29A, and 29C).
# Further, the inventors have examined the effect of preharvest treatment with phenylalanine on enzymatic browning, i.e., oxidation, in a fruit.
# [6] = tested on: Red (Memphis) and white (Sifra) potato tubers; assay: Scratch curing in potato tuber; details: for scratch curing (scale of 0-3): 8 mM dip 1 min
# Protocol: Red (Memphis) and white (Sifra) potato tubers were dipped in water or 8 mM Phe for 1 min, and dried. The tubers were stored at 20° C. for 2 days. Each tuber was scratched (2 cm length, and 1 cm wide) in 3 spots. One week and 2 weeks later the curing of the scratch was evaluated on a scale of 0-3, the recovery of the red color was evaluated on a scale of 0-3, and the weight loss was measured.
# [7] = tested on: White (Sifra) potato tubers; assay: Lignin production at the cut (Calcofluor white fluorescence); details: 8 mM dip, one-week post-treatment, vs control
# Protocol: White (Sifra) potato tubers were dipped in water or 8 mM Phe for 1 min, and dried. The tubers were stored at 20° C. for 2 days. Each tuber was cut (2 cm length, 2 cm deep, 2 mm wide). One week later the curing of the cut was documented.
# [8] = tested on: Apple (Starking Delicious) fruits; assay: Preharvest spray, red coloration and TSS in apple
# Protocol: FIGS. 27A-27D include vertical bar graphs showing the effect of preharvest spray treatment on red coloration and TSS in Apple (Starking Delicious) fruits. […] In 27D, TSS was evaluated at time 0 (TO), after cold storage (CS), and after time at shelf conditions (e.g., shelf-life (SL)).
# (§3) Further, improvement of fruit coloration was also shown in grapes (FIG. 28).
# [9] = tested on: Mango (Shelly) fruits; assay: Preharvest spray, red coloration and TSS in mango
# Source text: FIGS. 26A-26C include vertical bar graphs showing the effect of preharvest spray treatment on red coloration and TSS in Mango (Shelly) fruits. Red color surface (%; 26A), red color intensity (26B) and TSS (% Brix; 26C) were examined under preharvest treatments with 0.01%, 0.06%, […], or 0.24% phenylalanine (Phe).
# as §3
# [10] = tested on: mango fruits; assay: Brix values of mango fruits and juice
# Protocol: as §1
# [11] = tested on: Mango fruits (Tali and Shelly); assay: ROS accumulation in injured mango fruits; details: postharvest 8 mM; injured fruit; vs non-treated injured fruit
# Protocol: FIGS. 31A-31C include a fluorescent micrograph (31A) and vertical bar graphs showing that postharvest treatment of Mango fruits (Tali and Shelly) with 8 mM phenylalanine reduces accumulation of reactive oxygen species (ROS) in the peel (31B) and pulp (31C) of treated injured fruits compared to control injured fruit (non-treated). […] (31A) Visualization conducted 20 minutes post induced injury. (31B-31C) ROS quantification 7 days post induced injury.
# Further, the inventors have shown that postharvest treatment as disclosed herein reduces ROS (reactive oxygen species) accumulation in fruit injured postharvest (FIG. 31).
# [12] = tested on: Red (Memphis) and white (Sifra) potato tubers; assay: Cut curing in potato tuber; details: 8 mM dip; for weight loss after cutting: statistically significant 14 days post-treatment
# Protocol: Red (Memphis) and white (Sifra) potato tubers were dipped in water or 8 mM Phe for 1 min, and dried. The tubers were stored at 20° C. for 2 days. Each tuber was cut (2 cm length, 2 cm deep, 2 mm wide) in 3 spots. One week and 2 weeks later the curing of the cut was evaluated on a scale of 0-3, and the weight loss was measured.
# Red (Memphis) and white (Sifra) potato tubers were dipped in water or 8 mM Phe for 1 min, and dried. The tubers were stored at 20° C. for 2 days. Each tuber was cut (2 cm length, 2 cm deep, 2 mm wide). Two weeks later the superficial and internal curing were documented.
# [13] = tested on: apple fruits (Jonathan); assay: Sensory analysis and Brix of apple fruits and juice after preharvest treatment
# Protocol: Apple—Apple trees were treated with: 8 mM phenylalanine 1 week or 2 weeks before harvest; or with 0.2 prohydrojasmon (also known as ‘blush’). Fruits were harvested from the external area of the tree. After harvest, fruits were stored for 3 months at 0° C., wherein sensory analysis by a panel of 20 tasters was performed, for both slices fruit and for juice extracted therefrom. Brix values were also determined.
# [14] = tested on: apple fruits (Jonathan); assay: Red coloration of apple fruits after preharvest treatment; details: 8 mM, 1 or 2 weeks preharvest
# Protocol: as §2
# [15] = tested on: grapes (Skarlota); assay: Preharvest spray, red coloration in grapes
# Source text: FIG. 28 includes a vertical bar graph showing the effect of preharvest spray treatment on red coloration (represented as index 0-5) in grapes (Skarlota). […] Further, improvement of fruit coloration was also shown in grapes (FIG. 28).
# [16] = white Muscat grapes, preharvest application, 2020
# [17] = 0.12% (~6 mM) preharvest spray, compared to 0.01%
# [18] = preharvest, 0.06% by weight (~3 mM) or more
smiles,measurement,setting,value
N[C@@H](Cc1ccccc1)C(=O)O [phenylalanine],Brix values of grapes and/or juice,[1]; Muscat grapes,increased Brix values
same,Brix values of grapes and/or juice,[1]; Petit Verdot grapes,increased Brix values
same,quality of juice extracted from grapes,"[1]; Petit Verdot grapes, preharvest application, 2020",quality improvement
same,flavor of grapes,[1]; [16],flavor improvement
same,quality of juice extracted from grapes,[1]; [16],quality improvement
same,level of 3-Carene,[2],significantly elevated
same,level of Caryophyllene,[2],significantly elevated
same,level of D-Limonene,[2],significantly elevated
same,level of Gurjunene,[2],significantly elevated
same,level of α-Phellandrene,[2],significantly elevated
same,level of α-Pinene,[2],significantly elevated
same,level of α-Terpinolene,[2],significantly elevated
same,quality of juice extracted from mango fruits,[3]; Kent,quality improvement
same,quality of juice extracted from mango fruits,[3]; Shelly,quality improvement
same,"sensory quality of mango fruits (sweeter, less acidic, better aroma, firmness, general appreciation)","[3]; tasters' panel, postharvest dip 4-8 mM (FIGS. 1-3) or preharvest application (FIGS. 7, 12), vs control",better quality
same,formation of red coloration in mango fruits,[4],effectively induce the formation of red coloration
same,enzymatic browning (oxidation),"[5]; Anna apples, 2 weeks or 4 weeks preharvest",effective in reducing enzymatic browning
same,enzymatic browning (oxidation),"[5]; Starking apples, 2 weeks preharvest",effective in reducing enzymatic browning
same,weight loss after scratching,"[6]; Memphis (red), 8 mM dip",reduced
same,scratch curing (scale of 0-3),"[6]; Memphis (red), 7 and 14 days post-treatment",significantly improved
same,"color curing, recovery of the red color (scale of 0-3)","[6]; Memphis (red), 8 mM dip, 7 and 14 days post-treatment",significantly improved
same,scratch curing (scale of 0-3),"[6]; Sifra (white), 7 and 14 days post-treatment",significantly improved
same,weight loss after scratching,"[6]; Sifra (white), 8 mM dip, statistically significant",reduced
same,lignin production (fluorescent intensity),[7],increased lignin production
same,TSS (% Brix),[8]; 0.01% preharvest spray,comparable to negative control
same,"red coloration (red color surface %, red color intensity)",[8]; 0.01% preharvest spray,comparable to negative control
same,TSS (% Brix),[8]; [17],substantially more effective
same,"red coloration (red color surface %, red color intensity)",[8]; [17],substantially more effective
same,"red coloration (red color surface %, red color intensity)",[9]; 0.01% (~0.5 mM) preharvest spray,ineffective
same,TSS (% Brix),[9]; 0.01% preharvest spray,no contribution
same,TSS,[9]; [18],substantially improved
same,fruit coloration,[9]; [18],substantially improved
same,Brix values in juice extracted from mango fruits,"[10]; juice of treated mango fruits vs control (FIGS. 8, 13)",greater than the control
same,Brix values in mango fruits,"[10]; treated mango fruits vs control (FIGS. 1-3, 7, 12)",greater than the control
same,ROS accumulation in the peel,[11],substantially less ROS
same,ROS accumulation in the pulp,[11],substantially less ROS
same,cut curing (scale of 0-3),"[12]; Memphis, 14 days",to a less extent
same,weight loss after cutting,[12]; Memphis,reduced
same,internal curing of the cut,"[12]; Memphis, two weeks later",improved compared to control
same,cut curing (scale of 0-3),"[12]; Sifra, 7 and 14 days post-treatment, vs control",improved significantly
same,weight loss after cutting,[12]; Sifra,reduced
same,superficial and internal curing of the cut,"[12]; Sifra, two weeks later",improved compared to control
same,Brix values in apple fruits,"[13]; 8 mM preharvest, vs control",greater than the control
same,"sensory quality of apple fruits and/or juice (sweeter, less acidic, better aroma)","[13]; tasters' panel, 8 mM 1 or 2 weeks preharvest, after 3 months at 0° C.",better quality
same,texture of apple fruits,"[13]; tasters' panel, 8 mM preharvest",better texture
same,formation of red coloration in apple fruits,[14],effectively induce the formation of red coloration
same,red coloration,[15]; 0.01% (~0.5 mM) preharvest,ineffective
same,red color index (0-5),[15]; [17],substantially more effective
